Measured values: publication PMC8554203, “Inhibition of Bromodomain and Extra Terminal (BET) Domain Activity Modulates the IL-23R/IL-17 Axis and Suppresses Acute Graft-Versus-Host Disease” (Frontiers in Oncology, 2021)
Where two headings read alike, the source gives them in different places.

How the values were obtained:
[1] = molecular target: T1, BRD2 (Homo sapiens, UniProt P25440); assay: substrate binding (displacement) assay with engineered tandem bromodomain protein
T1 construct: BRD2-BD12 (engineered protein containing both bromodomains)
T1 sequence (P25440 74-453 limits assumed): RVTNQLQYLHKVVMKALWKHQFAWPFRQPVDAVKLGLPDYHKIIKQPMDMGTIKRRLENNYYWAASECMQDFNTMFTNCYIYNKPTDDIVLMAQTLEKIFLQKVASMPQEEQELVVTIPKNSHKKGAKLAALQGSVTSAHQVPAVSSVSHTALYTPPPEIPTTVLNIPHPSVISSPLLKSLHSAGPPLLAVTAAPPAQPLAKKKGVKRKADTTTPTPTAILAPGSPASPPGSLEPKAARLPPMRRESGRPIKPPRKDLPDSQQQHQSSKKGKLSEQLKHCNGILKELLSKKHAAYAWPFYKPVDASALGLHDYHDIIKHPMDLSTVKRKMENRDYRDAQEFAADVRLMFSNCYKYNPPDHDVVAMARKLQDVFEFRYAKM

[2] = molecular target: T2, BRD4 (Homo sapiens, UniProt O60885); assay: as above; settings: read-out: PLX2853 / IC50 (μM) ^a
T2 construct: BRD4-BD12 (engineered protein containing both bromodomains)

| Structure (SMILES) | IC50 ([1]; read-out: PLX2853 / IC50 (μM) ^a) | IC50 [2] | IC50 [1] |
| --- | --- | --- | --- |
| Cc1noc(C)c1-c1cnc2c(-c3ccc(C(=O)O)cc3)cn(C(C)(c3ccccn3)c3ccccn3)c2c1 [PLX2853] | 0.0073 µM | 0.0043 µM |  |
| Cc1noc(C)c1-c1cnc2c(-c3ccc(C(=O)O)cc3)cn([C@@H](C)c3ccccn3)c2c1 [PLX51107] |  |  | 0.052 µM |
